The record followed here is ChEMBL document CHEMBL4837241, “Identification of Betulinic Acid Derivatives as Potent TGR5 Agonists with Antidiabetic Effects via Humanized TGR5H88Y Mutant Mice” (J Med Chem, 2021).

pEC50: −log10 of the molar value. ≈ marks a conversion by molar mass, not a printed value. Calls of active or inactive are those of the source. The rule behind the calls is not given here.

Series [1] deals with HEK293. As to the kind of experiment: Agonist activity at N-terminal HA-tagged dog TGR5 expressed in HEK293 cells assessed as […] in intracellular cAMP levels incubated for 30 mins by Lance Ultra cAMP assay relative to control. It counts as cell-based. The note with it: Canis lupus familiaris, filed as agonist. A general note: Changes in cAMP serve as a functional read-out for many G protein-coupled receptors.

The target in series [2] is T1, G-protein coupled bile acid receptor 1 (Mus musculus) (UniProt Q80SS6).
T1 sequence (whole entry): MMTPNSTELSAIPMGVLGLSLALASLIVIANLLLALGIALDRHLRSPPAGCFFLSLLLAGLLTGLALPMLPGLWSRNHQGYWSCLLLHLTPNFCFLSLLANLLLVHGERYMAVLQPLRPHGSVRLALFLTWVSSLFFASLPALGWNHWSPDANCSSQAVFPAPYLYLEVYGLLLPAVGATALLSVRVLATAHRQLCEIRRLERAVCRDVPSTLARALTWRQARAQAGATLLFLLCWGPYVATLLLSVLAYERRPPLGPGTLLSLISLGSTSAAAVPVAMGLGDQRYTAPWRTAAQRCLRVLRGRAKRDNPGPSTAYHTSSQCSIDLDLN
The series can be described thus: Agonist activity at N-terminal HA-tagged mouse TGR5 expressed in HEK293 cells assessed as […] in intracellular cAMP levels incubated for 30 mins by Lance Ultra cAMP assay relative to control. The class given is functional, cell-based. The note with it: for Activity: filed as agonist.

Series [3] relates to HEK293. As to the kind of experiment: Ratio of agonist activity at N-terminal HA-tagged mouse TGR5 expressed in HEK293 cells to agonist activity at N-terminal HA-tagged mouse TGR5 H88Y mutant expressed in HEK293 cells. The class given is cell-based.
Series [4] concerns the target T2, G-protein coupled bile acid receptor 1 (Homo sapiens, UniProt Q8TDU6).
T2 sequence (Q8TDU6 whole entry): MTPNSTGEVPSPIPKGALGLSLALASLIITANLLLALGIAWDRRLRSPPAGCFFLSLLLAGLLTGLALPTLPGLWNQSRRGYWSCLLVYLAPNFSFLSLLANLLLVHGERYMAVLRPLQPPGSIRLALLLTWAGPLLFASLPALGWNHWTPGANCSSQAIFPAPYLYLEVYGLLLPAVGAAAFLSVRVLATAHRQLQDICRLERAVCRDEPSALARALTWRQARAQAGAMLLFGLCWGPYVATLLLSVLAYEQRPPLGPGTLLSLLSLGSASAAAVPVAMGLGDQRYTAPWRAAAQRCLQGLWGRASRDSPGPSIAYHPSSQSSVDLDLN
The series can be described thus: Agonist activity at N-terminal HA-tagged human TGR5 expressed in HEK293 cells assessed as […] in intracellular cAMP levels incubated for 30 mins by Lance Ultra cAMP assay. The class given is functional, cell-based.

Series [5] can be described thus: Aqueous solubility of compound. The class given is physicochemical. As to conditions: buffer.
The nature of series [6]: Apparent permeability in human Caco2 cells across basolateral side to apical side assessed as drug recovery at 10 uM incubated for 95 mins by liquid chromatography-tandem mass spectrometry. The class given is ADME, cell-based. The note with it: Caco-2, read-out: Drug recovery. Background: Caco-2 monolayers are a common model of the intestinal barrier.
The nature of series [7]: Apparent permeability in human Caco-2 cells across basolateral side to apical side at 10 uM incubated for 95 mins by liquid chromatography-tandem mass spectrometry. It counts as ADME, cell-based.
Series [8] can be described thus: Apparent permeability in human Caco2 cells across apical side to basolateral side assessed as drug recovery at 10 uM incubated for 95 mins by liquid chromatography-tandem mass spectrometry. It counts as ADME, cell-based. As to conditions: Caco-2, read-out: Drug recovery.
The nature of series [9]: Apparent permeability in human Caco-2 cells across apical side to basolateral side at 10 uM incubated for 95 mins by liquid chromatography-tandem mass spectrometry. The class given is ADME, cell-based.
A short description of series [10]: Efflux ratio in human Caco-2 cells at 10 uM by LC/MS/MS analysis. The class given is ADME, cell-based.
Series [11] has as its system Mus musculus. As to the kind of experiment: Anti-glycemic activity in fasted C57/BL6 mouse harboring TGR5 H88Y mutant assessed as reduction in plasma glucose at 100 mg/kg administered 30 mins prior to glucose challenge by OGTT. It counts as functional, organism-based.
Series [12] addresses T3, Bile acid receptor (Homo sapiens) (UniProt Q96RI1).
T3 sequence (whole entry): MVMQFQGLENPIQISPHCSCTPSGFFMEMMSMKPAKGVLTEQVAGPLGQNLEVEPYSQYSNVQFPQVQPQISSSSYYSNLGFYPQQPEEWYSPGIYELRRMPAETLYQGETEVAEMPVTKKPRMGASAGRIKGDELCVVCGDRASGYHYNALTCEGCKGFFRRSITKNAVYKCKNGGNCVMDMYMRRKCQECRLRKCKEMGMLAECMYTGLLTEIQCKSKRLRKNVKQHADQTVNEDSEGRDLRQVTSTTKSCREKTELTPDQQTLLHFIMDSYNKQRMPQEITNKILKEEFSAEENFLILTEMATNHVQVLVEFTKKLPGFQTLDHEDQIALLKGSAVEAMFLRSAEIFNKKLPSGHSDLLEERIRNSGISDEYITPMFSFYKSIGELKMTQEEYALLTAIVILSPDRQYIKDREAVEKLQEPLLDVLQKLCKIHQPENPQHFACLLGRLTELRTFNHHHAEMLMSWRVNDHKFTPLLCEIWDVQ
The series can be described thus: Agonist activity at human FXR (247 to 467 residues) expressed in HEK293 cells at 100 uM incubated for 8 hrs by luciferase assay. It counts as cell-based.

Series [13] addresses T4, G-protein coupled bile acid receptor 1 (Mus musculus, UniProt Q80SS6).
T4 sequence (Q80SS6 whole entry): T1 sequence (whole entry)
The series can be described thus: Agonist activity at N-terminal HA-tagged mouse TGR5 expressed in HEK293 cells assessed as […] in intracellular cAMP levels incubated for 30 mins by Lance Ultra cAMP assay. It counts as functional, cell-based.

Series [14] concerns the target T5, G-protein coupled bile acid receptor 1 (Homo sapiens) (UniProt Q8TDU6).
T5 sequence (whole entry): T2 sequence (Q8TDU6 whole entry)
The series can be described thus: Agonist activity at N-terminal HA-tagged human TGR5 expressed in HEK293 cells assessed as […] in intracellular cAMP levels incubated for 30 mins by Lance Ultra cAMP assay relative to control. It counts as functional, cell-based. As to conditions: filed as agonist.

Series [15] has as its system Mus musculus. As to the kind of experiment: Anti-glycemic activity in fasted C57BL/6n mouse assessed as increase in serum GLP1 at 100 mg/kg administered 30 mins prior to glucose challenge and measured after 15 mins by ELISA method. The class given is functional, organism-based.
Series [16] concerns Mus musculus. The series can be described thus: Anti-glycemic activity in fasted C57BL/6n mouse harboring wild type TGR5 assessed as reduction in plasma glucose at 100 mg/kg administered 30 mins prior to glucose challenge by OGTT. It counts as functional, organism-based.
In series [17] the test system is Mus musculus. As to the kind of experiment: Anti-glycemic activity in fasted C57BL/6n mouse harboring TGR5 H88Y mutant assessed as increase in serum insulin at 100 mg/kg administered 30 mins prior to glucose challenge and measured after 15 mins by ELISA method. The class given is functional, organism-based. Background: ELISA stands for enzyme-linked immunosorbent assay.

The subject of series [18] is Pancreatic islet. As to the kind of experiment: Stimulation of glucose-induced insulin secretion in pancreatic islets of C57BL/6n mouse harboring wild type TGR5 at 1 uM incubated for 2 hrs by HTRF method. The class given is functional, tissue-based.
In series [19] the test system is Pancreatic islet. As to the kind of experiment: Stimulation of glucose-induced insulin secretion in pancreatic islets of C57BL/6n mouse harboring TGR5 H88Y mutant at 1 uM incubated for 2 hrs by HTRF method. It counts as functional, tissue-based.
The test system of series [20] is Mus musculus. As to the kind of experiment: Anti-glycemic activity in fasted C57BL/6n mouse harboring TGR5 H88Y mutant assessed as increase in serum GLP1 at 100 mg/kg administered 30 mins prior to glucose challenge and measured after 15 mins by ELISA method. It counts as functional, organism-based.
Series [21] relates to Mus musculus. The series can be described thus: Anti-glycemic activity in fasted C57BL/6n mouse assessed as increase in serum insulin at 100 mg/kg administered 30 mins prior to glucose challenge and measured after 15 mins by ELISA method. The class given is functional, organism-based.

On to `C[C@H](CCC(=O)O)[C@H]1CC[C@H]2[C@@H]3[C@H](O)C[C@@H]4C[C@H](O)CC[C@]4(C)[C@H]3C[C@H](O)[C@]12C`, for which the result (with HEK293 [1]; in series [2]) was Active.

As for `C[C@H](CCC(=O)O)[C@H]1CC[C@H]2[C@@H]3CC[C@@H]4C[C@H](O)CC[C@]4(C)[C@H]3CC[C@]12C`, the outcome (in the series on HEK293 [1]; in [2]) was Active.

Consider `COc1ccc2cc(CNCCc3ccc(Br)cc3)c(-c3ccsc3)nc2c1`, for which the Ratio in the series on HEK293 [3] came out at 5.6. Further, in the series with HEK293 [1], the result was Active.

As a reminder, the pEC50 is the negative decadic logarithm of the EC50, by convention in mol/L. By solubility is commonly meant the concentration that dissolves in the medium under given conditions. `C[C@H](O)[C@@H]1CC[C@]2(C(=O)O)CC[C@]3(C)[C@H](CC[C@@H]4[C@@]5(C)CC[C@@H](OC(=O)NC6CC6)C(C)(C)[C@@H]5CC[C@]43C)[C@@H]12` [listing 1 of 2 here]: the pEC50 in series [4] is 8.29. The compound also yielded a solubility in series [5] of 12.2 µM (≈ 6.63 µg/mL).

One may read the Papp B→A as how fast a substance crosses the layer from the basolateral side. A word on the Papp A→B: it is how fast a substance crosses the layer from the apical side. A word on the efflux ratio: it is a quotient of directional permeabilities that is used to spot active efflux. On to `C[C@H](O)[C@@H]1CC[C@]2(C(=O)[O-])CC[C@]3(C)[C@H](CC[C@@H]4[C@@]5(C)CC[C@@H](OC(=O)NC6CC6)C(C)(C)[C@@H]5CC[C@]43C)[C@@H]12.[Na+]`, for which the recovery at 1.583 h, 10 µM in series [6] was 85.1%; in series [8], 84.6%. Also, in [7], the Papp B→A at 1.583 h, 10 µM is 2.49 ×10⁻⁶ cm/s. For the same compound, the Papp A→B at 1.583 h, 10 µM in [9] is 7.56 ×10⁻⁶ cm/s. Further, the efflux ratio at 10 µM in series [10] was found to be 0.329. For the same compound, the solubility in series [5] amounted to 76300 µM.

The term Emax denotes the greatest response seen or fitted, relative to the assay's reference. As to `CCCC(=O)O[C@@H]1CC[C@]2(C)[C@H]3CC[C@@H]4[C@H]5[C@H](C(C)C)CC[C@]5(C(=O)O)CC[C@@]4(C)[C@]3(C)CC[C@H]2C1(C)C`, the recovery at 1.583 h, 10 µM in [6] and in series [8] was 0% throughout. The result (in the series with Mus musculus [11]; in series [12]) was inactive. In addition, the pEC50 in [13] is 5.58; in series [4] it was 7.08. In addition, the Emax in series [14] stood at 94%; in [2] it was 22%. The same compound showed a solubility in series [5] of 0.13 µM (≈ 0.0687 µg/mL).

On to `O=C(c1cccnc1Oc1cc(Cl)ccc1Cl)N1CCCc2ccccc21`, for which, in the series on HEK293 [3], the Ratio was 4.9. Besides, in the series on HEK293 [1], the outcome was Active.

As for `C[C@H](O)[C@@H]1CC[C@]2(C(=O)O)CC[C@]3(C)[C@H](CC[C@@H]4[C@@]5(C)CC[C@@H](OC(=O)NC6CC6)C(C)(C)[C@@H]5CC[C@]43C)[C@@H]12` [listing 2 of 2 here], the outcome (with Mus musculus [15]; with Mus musculus [16]; in series [12]; with Mus musculus [21]) was inactive. Further, the outcome in the series with Mus musculus [11], with Mus musculus [17], in the series on Pancreatic islet [18], in the series on Pancreatic islet [19] and in the series with Mus musculus [20] was Active. Moreover, the maximal effect (Emax) in series [14] worked out at 99%.
